≈ marks a conversion by molar mass, not a printed value. Like-named read-outs stand apart in the source and are kept apart here.
Assays:
[1] = Aqueous solubility, modified procedure (saturated solutions, RP-HPLC); assay type: physicochemical; conditions: thermodynamic from solid, 100 mM phosphate buffer
Experimental: In these cases, the samples were targeted at a pH of 4 and 7 and were measured exclusively using 100 mM phosphate buffers. For both pH's, measured samples were initially prepared at ˜3 mg/ml and ˜10 mg/ml concentrations and for samples that dissolved rapidly, additional compound was added to the solution until saturated solutions were obtained.

[2] = In vitro bioconversion of pro-drug to parent drug in mouse blood, plasma, liver and kidney extract; assay type: in vitro ADME; conditions: for Peak Area of pro-drug: 37° C. heating block
Experimental: Compound concentrations were normalized to parent drug content by multiplying by a ratio of the relative molecular weights. Time 0 (minute) samples were prepared by immediately diluting with an equal volume of acetonitrile, vortexing, and transferring the samples to ice. […] Representative compounds of the present invention and the parent compound were analyzed by reversed-phase HPLC using an Agilent 1100 system. […] The solvent flow rate was 1 mL/min, and the column temperature was 40° C. Compound and parent peak identification was by diode array detection, monitored at 300 nm Conversion of the compounds (prodrugs) to parent drug was estimated by peak areas (A300 nm, mAU) of the respective agents. Mouse whole blood and plasma were collected from Swiss Webster mice, and stored at 4° C. until use (within 48 hours). […] For these experiments, fresh whole mouse livers or kidneys were homogenized for approximately 30 seconds (Omni-Tip™ disposable homogenizer tip) in 1 mL sterile saline and immediately stored on ice. Crude extracts (non-centrifuged) were incubated with the test compound or parent (20 μg/mL) and processed as described above.

[3] = In vitro bioconversion of pro-drug to parent drug in human blood and plasma; assay type: in vitro ADME; conditions: for Peak Area of pro-drug: 37° C.; for Conversion to the parent compound (summary in words): human whole blood and plasma
Experimental: Compounds #1, #4, #6, #15, and #16, as well as the parent drug [(E)-7-(3-(2-amino-1-fluoroethylidene)piperidin-1-yl)-1-cyclopropyl-6-fluoro-8-methoxy-4-oxo-1,4-dihydroquinoline-3-carboxylic acid] (the compound of formula (M)) were dissolved to 1 mg/mL, and diluted to 20 ng/mL in fresh, chilled (4° C.) human or mouse whole blood or plasma, or kidney and liver extract (prepared from the respective fresh mouse organs as described below). Compound concentrations were normalized to parent drug content by multiplying by a ratio of the relative molecular weights. Time 0 (minute) samples were prepared by immediately diluting with an equal volume of acetonitrile, vortexing, and transferring the samples to ice. For additional time points, samples were placed in an incubator (Tables 4 and 5), or in a heating block (Tables 6-12) at 37° C. for the indicated time, then immediately vortexed with an equal volume of acetonitrile and placed on ice. Samples were centrifuged and further diluted with an equal volume of water to a final concentration of 25% acetonitrile prior to analysis by HPLC; diluted samples were retained in the cooled (4° C.) HPLC sample injection chamber pending injection.
Representative compounds of the present invention and the parent compound were analyzed by reversed-phase HPLC using an Agilent 1100 system. Samples were injected onto a Zorbax SB-C18 column (3.5 μM, 4.6×150 mm) with a guard cartridge, and developed on a gradient of 15% aqueous acetonitrile in 0.1% trifluoroacetic acid to 85% aqueous acetonitrile in 0.1% trifluoroacetic acid over 10 minutes. The solvent flow rate was 1 mL/min, and the column temperature was 40° C. Compound and parent peak identification was by diode array detection, monitored at 300 nm Conversion of the compounds (prodrugs) to parent drug was estimated by peak areas (A300 nm, mAU) of the respective agents.
For studies with Compounds #1, #4 and #6 (with results as listed in Tables 8, 9 and 10), fresh human whole blood and plasma samples were purchased from BioChemed Services, shipped in Styrofoam coolers maintained with frozen cold packs, and used within 48 hours of receipt. For studies with Compounds #15 and #16 (with results as listed in Tables 11 and 12), blood was drawn from volunteers and whole blood samples and isolated plasma prepared and immediately placed on ice. Whole blood and plasma samples were maintained at 4° C. and used within approximately 30 hours.

[4] = system: Staphylococcus aureus (OC8525), a methicillin-resistant strain (MRSA); assay: In vivo efficacy in a mouse systemic infection model
Experimental: Female Swiss Webster mice weighing between 20-25 g were infected intraperitoneally with approximately 5×10^5 colony forming units (CFU) Staphylococcus aureus (OC8525), a methicillin-resistant strain (MRSA), in 7% mucin. One hour later, the animals were given the test compound intravenously or orally in a dose volume of 0.2 mL. Each animal test group consisted of eight animals. The test compounds were prepared immediately before dosing in 5% dextrose in water (D5W) and diluted further in D5W for i.v. and p.o. administration. The mice were observed over a three day period and ED50 values were calculated from the resulting % survival curves (see Table 13, below). The measured ED50 values were normalized to the content of (E)-7-(3-(2-amino-1-fluoroethylidene)piperidin-1-yl)-1-cyclopropyl-6-fluoro-8-methoxy-4-oxo-1,4-dihydroquinoline-3-carboxylic acid. For some compounds, in vivo efficacy was determined by testing a group of eight mice at a single dose level only. In these cases, the data presented in Table 13, below are reported as percent survival at the designated dose.

[5] = Rat pharmacokinetics; assay type: in vivo, Sprague-Dawley rats; conditions: iv
Experimental: Male Sprague-Dawley rats (n=4) were fasted overnight, then dosed intravenously (IV) with a 1 mg/mL solution of a compound of the present invention (prodrug) or parent (compound of formula (M)) in 20% hydroxypropyl-β-cyclodextrin at 2 mg/kg. Blood samples were collected up to 24 hours post dose into tubes containing an anticoagulant. Blood samples were centrifuged for cell removal, and 100 μL plasma was transferred to a clean vial, placed on dry ice, and stored in a −70° C. freezer prior to analysis.
Plasma samples were prepared as follows. Two volumes of acetonitrile containing formic acid and internal standard were added to one volume of plasma to precipitate proteins. Samples were centrifuged (3000 g for 5 min) and supernatant removed for analysis by LC-MS-MS. Calibration standards were prepared by adding appropriate volumes of stock solution directly into plasma and treated identically to collected plasma samples. LC-MS-MS analysis was performed utilizing multiple reaction monitoring for detection of characteristic ions for the test compounds (pro-drugs), parent (compound of formula (M)) and internal standard.
Plasma concentrations were measured as described above to determine a concentration vs time profile. The area under the plasma concentration vs time curve (AUC) was calculated using the linear trapezoidal method. Fitting of the data to obtain pharmacokinetic parameters was carried out using non-compartmental analysis, with results as listed in Table 14, below. The term “NA” means the data was not available.

[6] = Solubility of parent compound in citrate buffer (HPLC); assay type: physicochemical; conditions: aqueous buffer, thermodynamic from solid, 50 mM citrate buffer
Experimental: The solubility of the parent compound (the compound of formula (M), also known as ((E)-7-(3-(2-amino-1-fluoroethylidene)piperidin-1-yl)-1-cyclopropyl-6-fluoro-8-methoxy-4-oxo-1,4-dihydroquinoline-3-carboxylic acid), was determined in a separate experiment, in which solutions containing 50 mM citrate buffer at various pH were added to the solid compound at various target concentrations. The samples were mixed overnight and the pH measured with a Beckman φ360 pH/Temp/mV Meter. The samples were then filtered using nylon centrifuge filters. The supernatant was diluted and the concentration was measured with HPLC.

[7] = pH 4, aqueous buffer, read-out: Aqueous Solubility pH~4
[8] = pH 7, aqueous buffer, read-out: Aqueous Solubility pH~7
[9] = fresh human blood (volunteers), 0 min
[10] = fresh human blood (volunteers), 5 min
[11] = fresh human blood (volunteers), 7.5 min
[12] = fresh human blood (volunteers), 10 min
[13] = fresh human blood (volunteers), 15 min
[14] = fresh human blood (volunteers), […]
[15] = fresh human plasma (volunteers), 0 min
[16] = fresh human plasma (volunteers), 5 min
[17] = fresh human plasma (volunteers), 7.5 min
[18] = fresh human plasma (volunteers), 10 min
[19] = fresh human plasma (volunteers), 15 min
[20] = fresh human plasma (volunteers), […]
[21] = Staphylococcus aureus, 72 h, Swiss Webster mice infected i.p. with MRSA, oral dose 1 h later, 3 day survival, normalized to parent content, read-out: ED50 p.o.
[22] = Staphylococcus aureus, iv, 72 h, Swiss Webster mice infected i.p. with MRSA, i.v. dose 1 h later, 3 day survival, normalized to parent content, read-out: ED50 i.v.
[23] = Sprague-Dawley, in vivo, male rats, 2 mg/kg i.v., analyte: the administered compound itself

solubility at 18 h [1, 7] [µg/mL]	solubility at 18 h [1, 8] [µg/mL]	Peak Area of pro-drug ([2]; fresh mouse blood, 0 min) [mAU]	Peak Area of pro-drug ([2]; fresh mouse blood, 5 min) [mAU]	Peak Area of pro-drug ([2]; fresh mouse blood, 7.5 min) [mAU]	Peak Area of pro-drug ([2]; fresh mouse blood, 10 min) [mAU]	Peak Area of pro-drug ([2]; fresh mouse blood, 15 min) [mAU]	Peak Area of pro-drug ([2]; fresh mouse blood, […]) [mAU]	Peak Area of pro-drug ([2]; fresh mouse plasma, 0 min) [mAU]	Peak Area of pro-drug ([2]; fresh mouse plasma, 5 min) [mAU]	Peak Area of pro-drug ([2]; fresh mouse plasma, 7.5 min) [mAU]	Peak Area of pro-drug ([2]; fresh mouse plasma, 10 min) [mAU]	Peak Area of pro-drug ([2]; fresh mouse plasma, 15 min) [mAU]	Peak Area of pro-drug ([2]; fresh mouse plasma, […]) [mAU]	Peak Area of pro-drug [3, 9] [mAU]	Peak Area of pro-drug [3, 10] [mAU]	Peak Area of pro-drug [3, 11] [mAU]	Peak Area of pro-drug [3, 12] [mAU]	Peak Area of pro-drug [3, 13] [mAU]	Peak Area of pro-drug [3, 14] [mAU]	SMILES	further results
> 3690	> 3360	332	131	99	71	34	174	406	220	178	149	98	285	370	332	342	374	359	336	COc1c(N2CCC/C(=C(\F)CNC(=O)CNC(=O)[C@@H](N)CCC(=O)O)C2)c(F)cc2c(=O)c(C(=O)O)cn(C3CC3)c12.Cl [Compound 16, 7-(3-{2-[2-((2S)-2-Amino-4-carboxy-butyrylamino)-acetylamino]-1-fluoro-ethylidene}-piperidin-1-yl)-1-cyclopropyl-6-fluoro-8-methoxy-4-oxo-1,4-dihydro-quinoline-3-carboxylic acid hydrochloride]	Conversion to the parent compound (summary in words) ([2]; mouse plasma): converted to an unknown metabolite, but not substantially to the parent drug; Conversion to the parent compound (summary in words) ([2]; mouse whole blood): converted to the parent in mouse whole blood via the intermediacy of a metabolite of unknown identity; Peak Area of pro-drug [3, 15]: 351 mAU; Peak Area of pro-drug [3, 16]: 355 mAU; Peak Area of pro-drug [3, 17]: 366 mAU; Peak Area of pro-drug [3, 18]: 372 mAU; Peak Area of pro-drug [3, 19]: 371 mAU; Peak Area of pro-drug [3, 20]: 350 mAU; Conversion to the parent compound (summary in words) [3]: not measured to convert to the parent drug; ED50 [4, 21]: > 13.9 mg/kg; ED50 [4, 22]: 1.6 mg/kg; Conversion to the parent drug in vivo (in words) ([5]; in vivo): rapidly converted to the parent drug
–	–	–	–	–	–	–	–	–	–	–	–	–	–	–	–	–	–	–	–	COc1c(N2CCC/C(=C(\F)CN)C2)c(F)cc2c(=O)c(C(=O)O)cn(C3CC3)c12 [Compound (M), (E)-7-(3-(2-amino-1-fluoroethylidene)piperidin-1-yl)-1-cyclopropyl-6-fluoro-8-methoxy-4-oxo-1,4-dihydroquinoline-3-carboxylic acid]	solubility ([6]; pH 4.11, mixed overnight): 140 µg/mL (≈ 334 µM); solubility ([6]; pH 6.75, mixed overnight): 40 µg/mL (≈ 95.4 µM); ED50 ([4]; administered i.v., mouse MRSA systemic infection): 0.71 mg/kg/day; ED50 ([4]; administered p.o., mouse MRSA systemic infection): 10.6 mg/kg/day; AUC [5, 23]: 718 ng·h/mL; Cmax [5, 23]: 805 ng/mL; clearance [5, 23]: 47.1 mL/min/kg; Vd ([5]; Sprague-Dawley, in vivo, male rats, 2 mg/kg i.v., analyte: the administered compound itself, read-out: Vss): 6.08 L/kg; half-life ([5]; Sprague-Dawley, plasma, male rats, 2 mg/kg i.v., analyte: the administered compound itself): 1.5 h
> 4600	> 11100	265	75	36	29	17	123	488	106	72	62	22	182	242	23	10	8	6	59	COc1c(N2CCC/C(=C(\F)CNC(=O)[C@@H]3CCCN3C(=O)[C@@H](N)CCCCN)C2)c(F)cc2c(=O)c(C(=O)O)cn(C3CC3)c12.Cl.Cl [Compound 15, 1-Cyclopropyl-7-[3-(2-{[(2S)-1-((2S)-2,6-diamino-hexanoyl)-pyrrolidine-2-carbonyl]-amino}-1-fluoro-ethylidene)-piperidin-1-yl]-6-fluoro-8-methoxy-4-oxo-1,4-dihydro-quinoline-3-carboxylic acid dihydrochloride]	Conversion to the parent compound (summary in words) ([2]; mouse whole blood and plasma): converted to the parent; Peak Area of pro-drug [3, 15]: 330 mAU; Peak Area of pro-drug [3, 16]: 26 mAU; Peak Area of pro-drug [3, 17]: 14 mAU; Peak Area of pro-drug [3, 18]: 10 mAU; Peak Area of pro-drug [3, 19]: 11 mAU; Peak Area of pro-drug [3, 20]: 75 mAU; Conversion to the parent compound (summary in words) [3]: converted to the parent; ED50 [4, 21]: > 13 mg/kg; ED50 [4, 22]: 1.6 mg/kg; Conversion to the parent drug in vivo (in words) ([5]; in vivo): rapidly converted to the parent drug
